According to US6844306B2, “Water-soluble, chlorhexidine-containing compositions and use thereof” (Degussa AG, priority 2000, dated 2005):

Key:
[1] = cited from earlier work
[2] = Text: Ion concentrations exceeding the maximum values established by the solubility product should lead to precipitations.

| Compound | water solubility [1] | bromide ions in saturated chlorhexidine bromide solution [2] [mg per liter] | chlorhexidine dication in saturated chlorhexidine bromide solution [2] |
| --- | --- | --- | --- |
| CCCCCCCCCCCCCCCC[N+](C)(C)C.[Br-] [cetrimide, N-cetyl-N,N,N-trimethylammonium bromide] | approx. 67 g/l | – | – |
| Br.Br.N=C(NCCCCCCNC(=N)NC(=N)Nc1ccc(Cl)cc1)NC(=N)Nc1ccc(Cl)cc1 [chlorhexidine dibromide] | – | ~450 | approximately 1400 mg per liter |
